# ChEMBL document CHEMBL5244273, “Tuberculosis: An Overview of the Immunogenic Response, Disease Progression, and Medicinal Chemistry Efforts in the Last Decade toward the Development of Potential Drugs for Extensively Drug-Resistant Tuberculosis Strains” (J Med Chem, 2021)
# Experiments:
# [1] = test system: MCF7; assay: Cytotoxicity against human MCF7 cells assessed as cell growth inhibition; type: functional
# [2] = Selectivity index, ratio of GI50 for cytotoxicity against human HeLa cells to MIC for antitubercular activity against active stage of Mycobacterium tuberculosis H37Ra; type: toxicity, cell-based; conditions: read-out: Selectivity Index
# [3] = Cytotoxicity against HUVEC cells assessed as cell growth inhibition; type: toxicity, cell-based; conditions: human
# [4] = Selectivity index, ratio of GI50 for cytotoxicity against human MCF7 cells to MIC for antitubercular activity against dormant stage of Mycobacterium tuberculosis H37Ra; type: toxicity, cell-based; conditions: read-out: Selectivity Index
# [5] = Selectivity index, ratio of GI50 for cytotoxicity against HUVEC cells to MIC for antitubercular activity against dormant stage of Mycobacterium tuberculosis H37Ra; type: toxicity, cell-based; conditions: human, read-out: Selectivity Index
# [6] = test system: HeLa; assay: Cytotoxicity against human HeLa cells assessed as cell growth inhibition; type: functional
# [7] = Selectivity index, ratio of GI50 for cytotoxicity against human MCF7 cells to MIC for antitubercular activity against active stage of Mycobacterium tuberculosis H37Ra; type: toxicity, cell-based; conditions: read-out: Selectivity Index
# [8] = Selectivity index, ratio of GI50 for cytotoxicity against human HeLa cells to MIC for antitubercular activity against dormant stage of Mycobacterium tuberculosis H37Ra; type: toxicity, cell-based; conditions: read-out: Selectivity Index
# [9] = Selectivity index, ratio of GI50 for cytotoxicity against HUVEC cells to MIC for antitubercular activity against active stage of Mycobacterium tuberculosis H37Ra; type: toxicity, cell-based; conditions: human, read-out: Selectivity Index
# [10] = test system: Mycobacterium tuberculosis; assay: Antitubercular activity against dormant stage of Mycobacterium tuberculosis H37Ra; type: functional
# [11] = test system: Mycobacterium tuberculosis; assay: Antitubercular activity against active stage of Mycobacterium tuberculosis H37Ra; type: functional
# [12] = test system: Mycobacterium tuberculosis; assay: Antimycobacterial activity against Mycobacterium tuberculosis H37Rv assessed as inhibition of bacterial growth incubated for 5 days by alamar blue assay; type: functional; conditions: 120 h, time 5 day
# [13] = Cytotoxicity against African green monkey Vero cells assessed as inhibition of cell growth incubated for 72 hrs by MTT assay; type: toxicity, cell-based, Chlorocebus sabaeus
# [14] = test system: Vero; assay: Cytotoxicity against African green monkey Vero cells; type: toxicity, cell-based, Chlorocebus sabaeus; conditions: chlorocebus sabaeus, vero
# [15] = test system: Mycobacterium tuberculosis; assay: Antimycobacterial activity against Mycobacterium tuberculosis H37Rv; type: functional
# [16] = Cytotoxicity against Chinese hamster CHO-K1 cells assessed as inhibition of cell growth; type: toxicity, cell-based, Cricetulus griseus
# [17] = Selectivity index, ratio of IC50 for cytotoxicity against Chinese hamster CHO-K1 cells to MIC for antimycobacterial activity against Mycobacterium tuberculosis H37Rv; type: toxicity, cell-based; conditions: read-out: Selectivity Index
# [18] = test system: Mycobacterium tuberculosis; assay: Antitubercular activity against Mycobacterium tuberculosis H37Rv by resazurin microtitre assay; type: functional
# [19] = test system: Mycobacterium tuberculosis; assay: Antitubercular activity against Mycobacterium tuberculosis MDR-FJ05120 assessed as inhibition of bacterial growth by microplate alamar blue assay; type: functional
# [20] = test system: Mycobacterium tuberculosis; assay: Antitubercular activity against Mycobacterium tuberculosis STB-FJ05349 assessed as inhibition of bacterial growth by microplate alamar blue assay; type: functional
# [21] = test system: Mycobacterium tuberculosis; assay: Antitubercular activity against Mycobacterium tuberculosis H37Rv ATCC 27294 assessed as inhibition of bacterial growth by microplate alamar blue assay; type: functional
# [22] = test system: Mycobacterium tuberculosis; assay: Antitubercular activity against Mycobacterium tuberculosis STB-FJ05060 assessed as inhibition of bacterial growth by microplate alamar blue assay; type: functional
# [23] = test system: Mycobacterium tuberculosis; assay: Antitubercular activity against Mycobacterium tuberculosis XDR-FJ05195 assessed as inhibition of bacterial growth by microplate alamar blue assay; type: functional
# [24] = test system: Mycobacterium tuberculosis; assay: Antitubercular activity against Mycobacterium tuberculosis MDR-FJ05189 assessed as inhibition of bacterial growth by microplate alamar blue assay; type: functional
# [25] = test system: Staphylococcus aureus; assay: Antibacterial activity against methicillin susceptible Staphylococcus aureus ATCC 29213; type: functional
# [26] = test system: Mycobacterium tuberculosis; assay: Antimycobacterial activity against Mycobacterium tuberculosis H37Rv incubated for 3 weeks; type: functional; conditions: 504 h
# [27] = test system: Mycobacterium tuberculosis; assay: Antimycobacterial activity against Mycobacterium tuberculosis H37Rv incubated for 5 weeks; type: functional; conditions: 840 h
# [28] = test system: Staphylococcus epidermidis; assay: Antibacterial activity against Staphylococcus epidermidis; type: functional
# [29] = test system: Mycobacterium tuberculosis; assay: Antimycobacterial activity against Mycobacterium tuberculosis H37Rv incubated for 4 weeks; type: functional; conditions: 672 h
# [30] = test system: Mycobacterium tuberculosis; assay: Antimycobacterial activity against Mycobacterium tuberculosis H37Rv incubated for 2 weeks; type: functional; conditions: 336 h
# [31] = test system: Mycobacterium tuberculosis; assay: Antitubercular activity against Mycobacterium tuberculosis H37Rv assessed as inhibition of bacterial growth by alamar blue assay; type: functional
# [32] = test system: Mycobacterium tuberculosis; assay: Antimycobacterial activity against Mycobacterium tuberculosis H37Rv […]; type: functional
smiles,measurement,setting,value
O=C(OC1CCCCC1)c1ccsc1NC(=O)[C@@H]1CCCN1,GI50,[1],162 µg/mL
same,selectivity ratio,[2],3.76
same,GI50,[3],137 µg/mL
same,selectivity ratio,[4],33
same,selectivity ratio,[5],27.9
same,GI50,[6],92.8 µg/mL
same,selectivity ratio,[7],6.59
same,selectivity ratio,[8],18.9
same,selectivity ratio,[9],5.57
same,MIC,[10],4.92 µg/mL
same,MIC,[11],24.6 µg/mL
Cc1cc(O)n2nc(Nc3ccc(F)c(F)c3)c(C(=O)Nc3ccc(F)cc3)c2n1,MIC,[12],0.8 µg/mL
same,IC50 at 72 h,[13],13.6 µg/mL
COc1cccc(C(=O)Nc2nc3cc(C4=NN(C(C)=O)C(c5cccs5)C4)ccc3o2)c1 (centres undefined),IC5,[14],> 62.5 µg/mL
same,MIC,[15],1.6 µg/mL
Sc1nnc(-c2cc3ccccc3o2)o1,IC50,[16],34.4 µg/mL
same,selectivity ratio,[17],26.4
same,MIC,[15],1.3 µg/mL
CC[C@@H](CO)NCCN[C@@H](CC)CO [ETHAMBUTOL],MIC,[18],0.78 µg/mL
NNC(=O)c1ccncc1 [ISONIAZID],MIC,[19],4 µg/mL
same,MIC,[12],0.5 µg/mL
same,MIC,[20],< 0.5 µg/mL
same,MIC,[21],0.125 µg/mL
same,MIC,[22],< 0.5 µg/mL
same,MIC,[23],> 256 µg/mL
same,MIC,[18],0.19 µg/mL
same,MIC,[24],< 0.5 µg/mL
same,MIC,[15],0.5 µg/mL
C[C@H]1COc2c(N3CCN(C)CC3)c(F)cc3c(=O)c(C(=O)O)cn1c23.C[C@H]1COc2c(N3CCN(C)CC3)c(F)cc3c(=O)c(C(=O)O)cn1c23.O [LEVOFLOXACIN],MIC,[25],0.25 µg/mL
same,MIC,[26],0.25 µg/mL
same,MIC,[27],0.25 µg/mL
same,MIC,[28],0.25 µg/mL
same,MIC,[29],0.25 µg/mL
same,MIC,[30],0.25 µg/mL
NC(=O)c1cnccn1 [PYRAZINAMIDE],MIC,[12],3.12 µg/mL
same,MIC,[18],> 200 µg/mL
same,MIC,[31],3.12 µg/mL
same,MIC,[15],3.12 µg/mL
CO[C@H]1/C=C/O[C@@]2(C)Oc3c(C)c(O)c4c(O)c(c(/C=N/N5CCN(C)CC5)c(O)c4c3C2=O)NC(=O)/C(C)=C\C=C\[C@H](C)[C@H](O)[C@@H](C)[C@@H](O)[C@@H](C)[C@H](OC(C)=O)[C@@H]1C [RIFAMPIN],MIC,[19],> 256 µg/mL
same,MIC,[20],< 0.5 µg/mL
same,MIC,[21],0.125 µg/mL
same,MIC,[22],< 0.5 µg/mL
same,MIC,[23],4 µg/mL
same,MIC,[18],0.049 µg/mL
same,MIC,[10],0.91 µg/mL
same,MIC,[24],> 256 µg/mL
same,MIC90,[15],2.91 nM
same,MIC99,[15],4.82 nM
same,MIC,[32],0.377 µM
same,MIC,[11],0.75 µg/mL
CN[C@@H]1[C@H](O[C@H]2[C@H](O[C@H]3[C@H](O)[C@@H](O)[C@H](N=C(N)N)[C@@H](O)[C@@H]3N=C(N)N)O[C@@H](C)[C@]2(O)C=O)O[C@@H](CO)[C@H](O)[C@H]1O [STREPTOMYCIN],MIC,[12],6.25 µg/mL
same,MIC,[18],0.19 µg/mL
same,MIC,[31],6.25 µg/mL
same,MIC,[15],6.25 µg/mL
